The test has as its system Gli1 mRNA levels in the murine BCC cell line ASZ-001 (Hh pathway). Nature of the test: Hh pathway inhibition: endogenous Gli1 mRNA (qRT-PCR) in ASZ-001 cells. In kind it is cell-based. As to the method:
Initial Hh inhibition studies.
General Information for Cell Culture Studies Protocols for general cell culture, qPCR, and Hh inhibition ASZ cells are as previously described.
General Information for Cell Culture Studies. Protocols for general cell culture, qPCR, and Hh inhibition ASZ cells are as previously described.
Gene Expression Assay Protocol (ASZ-001): Cells are seeded (10,000 cells per well; 100 μL total volume per well) in a 96-well tissue culture plate. After 24 h of incubation (37° C., 5% CO2), growth media was removed and replaced with low FBS media. Cells were incubated for an additional 24 h. After this time, DMSO (vehicle control) and liposomes (Aqueous Solution) were added to the wells. […]
Rt-PCR Protocol: Following treatment and incubation periods, both RNA extraction and cDNA synthesis were performed using a TaqMan Cells-to-CT (fast) kit. cDNA synthesis utilized a BioRad MyCycler and was programmed according to the manufacturer's instructions. Quantitative RT-PCR was performed on an ABI 7500 system and made use of the following TaqMan Gene Expression Probes: mouse ActB (Mm00607939_s1) and mouse Gli1 (Mm00494654_m1). Relative gene expression levels were computed via ΔΔCT method using GraphPad Prism. Corresponding IC50 values were calculated as mean±SEM for at least three separate experiments performed in triplicate.
In general terms: Quantitative PCR measures a nucleic acid by following its amplification.

Setting [1] is: Mus musculus, ASZ001, Table P2, ASZ cells, Gli1 mRNA, 48 h incubation, read-out: IC50.
The mark [2] stands for this setting: Table 7, ASZ cells, Gli1 mRNA, 48 h incubation, read-out: IC50.
Setting [3] is: Table 6, ASZ cells, Gli1 mRNA, 48 h incubation, read-out: IC50.

Where two headings read alike, the source gives them in different places. A value given as a limit tells only on which side of the number the result lay.

In the case of `C[C@]1(c2ccc(F)cc2F)C[C@H](COc2ccc(N3CCN(c4ccc(NC(=O)NN)cc4)CC3)cc2)CO1` [Compound P22, N-(4-(4-(4-(((3R,5R)-5-(2,4-difluorophenyl)-5-methyltetrahydrofuran-3-yl)methoxy)phenyl)piperazin-1-yl)phenyl)hydrazinecarboxamide], under setting [1], the IC50 (in general, the concentration that inhibits the measured activity by half) was found to be 220 ± 80 nM.

Take `C[C@]1(c2ccc(F)cc2F)C[C@H](COc2ccc(N3CCN(c4ccc(-n5cnn(CC(=O)O)c5=O)cc4)CC3)cc2)CO1` [Compound P14, 2-(4-(4-(4-(4-(((3R,5R)-5-(2,4-difluorophenyl)-5-methyltetrahydrofuran-3-yl)methoxy)phenyl)piperazin-1-yl)phenyl)-5-oxo-4,5-dihydro-1H-1,2,4-triazol-1-yl)acetic acid]: under setting [1], the half-inhibitory concentration (IC50) was found to be 150 ± 20 nM.

With `C[C@]1(c2ccc(F)cc2F)C[C@H](COc2ccc(N3CCN(c4ccc(NC(=O)c5cccc(O)c5)cc4)CC3)cc2)CO1` [Compound P25, N-(4-(4-(4-(((3R,5R)-5-(2,4-difluorophenyl)-5-methyltetrahydrofuran-3-yl)methoxy)phenyl)piperazin-1-yl)phenyl)-3-hydroxybenzamide], the IC50 under setting [1] amounted to 190 ± 30 nM.

For the molecule `C[C@]1(c2ccc(Cl)cc2Cl)OC[C@@H](COc2ccc(N3CCN(c4ccc(NC(=O)c5ccsc5)cc4)CC3)cc2)O1` [Compound 36, N-(4-(4-(4-(((2S,4R)-2-(2,4-dichlorophenyl)-2-methyl-1,3-dioxolan-4-yl)methoxy)phenyl)piperazin-1-yl)phenyl)thiophene-3-carboxamide], the “IC50 (μM)” value (Table 7, ASZ cells, Gli1 mRNA, 48 h incubation) was “inactive”. For the same molecule, under setting [2], the IC50 is above 10000 nM.

`C[C@]1(c2ccc(Cl)cc2Cl)OC[C@@H](COc2ccc(N3CCN(c4ccc(N)cc4)CC3)cc2)O1` [Compound 9, 4-(4-(4-(((2S,4R)-2-(2,4-dichlorophenyl)-2-methyl-1,3-dioxolan-4-yl)methoxy)phenyl)piperazin-1-yl)aniline] had a 50% inhibitory concentration (IC50) (Mus musculus, ASZ001, 48 h) of 390 ± 90 nM.

Turning to `C[C@@]1(c2ccc(Cl)cc2Cl)OC[C@@H](COc2ccc(N3CCN(c4ccc(NC(=O)c5ccccc5)cc4)CC3)cc2)O1` [Compound 10, N-(4-(4-(4-(((2R,4R)-2-(2,4-dichlorophenyl)-2-methyl-1,3-dioxolan-4-yl)methoxy)phenyl)piperazin-1-yl)phenyl)benzamide], under setting [3], the 50% inhibitory concentration (IC50) was above 10000 nM.

Turning to `C[C@@]1(c2ccc(Cl)cc2Cl)OC[C@@H](COc2ccc(N3CCN(c4ccc(NC(=O)c5ccc(O)cc5)cc4)CC3)cc2)O1` [Compound 28, N-(4-(4-(4-(((2R,4R)-2-(2,4-dichlorophenyl)-2-methyl-1,3-dioxolan-4-yl)methoxy)phenyl)piperazin-1-yl)phenyl)-4-hydroxybenzamide], the IC50 under setting [3] was above 10000 nM.

Regarding `C[C@]1(c2ccc(Cl)cc2Cl)OC[C@@H](COc2ccc(N3CCN(c4ccc(NC(=O)c5cccc(Cl)c5)cc4)CC3)cc2)O1` [Compound 32, 3-chloro-N-(4-(4-(4-(((2S,4R)-2-(2,4-dichlorophenyl)-2-methyl-1,3-dioxolan-4-yl)methoxy)phenyl)piperazin-1-yl)phenyl)benzamide], under setting [2], the IC50 is above 10000 nM.

`C[C@]1(c2ccc(Cl)cc2Cl)OC[C@@H](COc2ccc(N3CCN(c4ccc([N+](=O)[O-])cc4)CC3)cc2)O1` [Compound 7, 1-(4-(((2S,4R)-2-(2,4-dichlorophenyl)-2-methyl-1,3-dioxolan-4-yl)methoxy)phenyl)-4-(4-nitrophenyl)piperazine]: it took 260 ± 40 nM to reach half-maximal inhibition (Mus musculus, ASZ001, 48 h) (IC50).

For `C[C@@]1(c2ccc(Cl)cc2Cl)OC[C@@H](COc2ccc(N3CCN(c4ccc(NC(=O)c5ccncc5)cc4)CC3)cc2)O1` [Compound 14, N-(4-(4-(4-(((2R,4R)-2-(2,4-dichlorophenyl)-2-methyl-1,3-dioxolan-4-yl)methoxy)phenyl)piperazin-1-yl)phenyl)isonicotinamide], the IC50 under setting [3] is above 10000 nM.

Take `C[C@]1(c2ccc(Cl)cc2Cl)OC[C@@H](COc2ccc(N3CCN(c4ccc(NC(=O)c5ccc(O)cc5)cc4)CC3)cc2)O1` [Compound 31, N-(4-(4-(4-(((2S,4R)-2-(2,4-dichlorophenyl)-2-methyl-1,3-dioxolan-4-yl)methoxy)phenyl)piperazin-1-yl)phenyl)-4-hydroxybenzamide]: under setting [3], the half-maximal inhibitory concentration (IC50) came to 3000 ± 100 nM.
